Consider one molecule from patent US20120213706A1, “RECONSTITUTED TUMOR MICROENVIRONMENT FOR ANTICANCER DRUG DEVELOPMENT” (UNIVERSITY OF MEDICINE AND DENTISTRY OF NEW JERSEY, priority 2009, published 2012).

SMILES strings stand for the structures. Numbered stars: 1 amine (or outer) side, 2 acyl side, 3 side chain; on linkers, the order of the positions; unused ones are H or OH. Bridge positions count the residues as written; N and C are the ends. Square brackets hold non-standard residues; d marks the D form. Peptide text beside a SMILES is read from it. * marks the point of attachment. X1 = CC[C@H](C)[C@@H](N[*:1])[C@@H](O)CC(=O)O[C@H](C(=O)[C@H](C)C(=O)[*:2])C(C)C; NMeY = CN[C@@H](Cc1ccc(O)cc1)C(=O)O; dNMeL = CN[C@H](CC(C)C)C(=O)O; Pyruvoyl = CC(=O)C(=O)*

What all share (type): cell-based
In test [1] the test system is tumor cells in the reconstituted tumor microenvironment. The test can be described thus: growth of tumor cells in the reconstituted tumor microenvironment. The following applies: tumor cells established within the reconstituted tumor microenvironment. On the procedure:
The three cell system in Examples 1 and 2 is prepared and used to test standard chemotherapeutic agents for activity against cancer cell lines, such as the breast cancer cell lines MDAMB231 and MDAMB435 representing basal subtype and MCF7 and SKBR3 representing luminal subtype of breast cancer. Reconstitution is carried out in 96 well plates by co-culturing a fixed number of tumor cells and carcinoma-associated fibroblast-like cells plus TAMs either alone or admixed with differing amounts of cells representing cell types in tumor milieu. Tumor growth is monitored at these sites in accordance with the foregoing. As the tumor cells express luciferase, tumor growth is monitored even at early time points by bioluminescence imaging following injection of D-luciferin on a Kodak MM2000 Imager. Again, all the tumor cell lines tested in culture are tested in this assay.
The reconstituted system is used to identify synergistic combinations using a panel of standard chemotherapeutic agents and Jak/STAT3 inhibitors. The Chou Talalay combination index analysis is used and the data analyzed using Calcusyn software (Biosoft ver 3). […] Growth of tumors is monitored by bioluminescence imaging using a KODAK […] Imaging station as described earlier. […]

For another test, the system named is Jak/Stat3 signaling. The test can be described thus: Jak/Stat3 signaling in tumor cells following treatment. The conditions noted are these: following dehydrodidemnin B treatment.
In test [2] the test system is FSP positive tumor stroma. The test can be described thus: FSP positive tumor stroma after treatment. The following applies: fibroblast surface protein (FSP) as marker for tumor stroma.
The test system of a further test is tumor cells. The test can be described thus: tumor cell demise following treatment. The following applies: following dehydrodidemnin B treatment. The source says: Accordingly, the instant invention is useful in drug screening assays for known and novel therapeutics targeting either the tumor cell or components of the tumor cell environment.

On to `CC[C@H](C)[C@H]1NC(=O)[C@@H](NC(=O)[C@@H](CC(C)C)N(C)C(=O)[C@@H]2CCCN2C(=O)C(C)=O)[C@@H](C)OC(=O)[C@H](Cc2ccc(OC)cc2)N(C)C(=O)[C@@H]2CCCN2C(=O)[C@H](CC(C)C)NC(=O)[C@@H](C)C(=O)[C@H](C(C)C)OC(=O)C[C@@H]1O` [dehydrodidemnin B] (Pyruvoyl-P[dNMeL]T[X1]LP[NMeY](Me); ester 3-C), for which the “growth of tumor cells” value in test [1] is recorded as “can be inhibited”; in test [1] (listed as Dehydrodidemnin B) it was “inhibited”. For the same molecule, the “Jak/Stat3 signaling in tumor cells” value in the test with Jak/Stat3 signaling is listed as “inhibition of Jak/Stat3 signaling”. Also, the “FSP positive tumor stroma” value in test [2] is “decreased FSP positive tumor stroma”. Moreover, the “fate of tumor cells after inhibition of Jak/Stat3 signaling” value with tumor cells is “led to the demise of tumor cells”.
